Tests used:
Type in all cases: cell-based
[1] = system: Akt, ERK, JNK and p38 phosphorylation in LNCaP cells; test: Western blot of kinase phosphorylation in LNCaP cells
Protocol: Cells cultured in T25 flasks were collected by scraping, and cell pellets were washed once with PBS. Cells were lysed in a lysis buffer consisting of 1% SDS, 10 mM EDTA and 50 mM Tris-HCl, pH 8.1, in the presence of a commercial protease inhibitor cocktail from Aldrich-Sigma (2 mM AEBSF, 1 mM EDTA, 130 μM bestatin, 14 μM E-64, 1 μM leupeptin, and 0.3 μM aprotinin). Following a 10-sec sonication using 20% output in a Virsonic 300 sonicator (Virtis, Gardiner N.Y.) to disrupt cellular organelles and genomic DNA, cell lysates were centrifuged at 15,200×g for 15 minutes. One μL of the suspension was used for protein determination using a colorimetric BCA assay (Pierce, Rockford, Ill.), and to the remaining solution was added an equivalent volume of 2×SDS-polyacrylamide gel electrophoresis sample loading buffer (62.5 mM Tris-HCl, pH 6.8, 4% SDS, 5% β-mercaptoethanol, 20% glycerol, and 0.1% bromophenol blue), and boiled for 5 min. Equal amounts of proteins were resolved in 8% SDS-polyacrylamide gels, and transferred to nitrocellulose membranes using a semidry transfer cell. The transblotted membrane was washed twice with Tris-buffered saline containing 0.1% Tween 20 (TBST). After blocking with TBST containing 5% nonfat milk for 40 min, the membrane was incubated with the appropriate primary antibody in TBST-1% nonfat milk at 4° C. overnight. […]

[2] = system: AR mRNA in LNCaP cells; test: RT-PCR of AR mRNA in LNCaP cells; settings: 10 μM
Protocol: RNA Isolation and Reverse Transcription (RT)-PCR.
LNCaP cells were subject to total RNA isolation by using a Trizol reagent (Invitrogen Corporation, CA). RNA concentrations were determined by measuring absorption at 260 nm in a spectrophotometer. Aliquots of 2 μg of total RNA from each sample were reverse transcribed to cDNAs using the iScript cDNA Synthesis Kit (Bio-Rad) according to the manufacturer's instructions. PCR products were resolved electrophoretically in 1.2% agarose gels and visualized by ethidium bromide staining.

[3] = biological target: T1, PP2A (Homo sapiens, UniProt P67775); test: PP2A immunoprecipitation phosphatase activity assay in drug-treated LNCaP cells; settings: for PP2A phosphatase activity: LNCaP cells, 12 h drug exposure; for PP2A expression (protein level): after drug treatment, Western blot
T1 construct: endogenous in cells; host or cells: LNCaP
T1 sequence (P67775 whole entry): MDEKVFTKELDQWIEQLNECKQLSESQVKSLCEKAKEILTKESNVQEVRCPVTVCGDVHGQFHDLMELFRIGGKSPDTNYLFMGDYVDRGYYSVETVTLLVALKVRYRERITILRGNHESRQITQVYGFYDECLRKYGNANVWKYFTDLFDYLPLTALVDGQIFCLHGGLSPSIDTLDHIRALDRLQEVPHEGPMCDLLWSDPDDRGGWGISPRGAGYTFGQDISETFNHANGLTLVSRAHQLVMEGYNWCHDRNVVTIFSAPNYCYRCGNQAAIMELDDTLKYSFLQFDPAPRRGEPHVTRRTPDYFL
Protocol: PP2A activity in drug-treated cells was determined by using a PP2A Immunoprecipitation Phosphatase Assay Kit (Millipore) according to the manufacturer's instructions. LNCaP cells were exposed to DMSO, VES, or TS-1 at the indicated concentrations in 2.5% FBS supplemented medium for 12 h, and subjected to cell lysis in a phosphate-free lysis buffer containing 20 mmol/L imidazole-HCl, pH 7.0, 2 mM EDTA, 2 mM EGTA, 2 mM AEBSF, 1 mM EDTA, 130 μM bestatin, 14 μM E-64, 1 μM leupeptin, and 0.3 μM aprotinin. The suspension was sonicated (Virtis) at 20% output for 10 sec, followed by centrifugation at 2000×g for 5 min. One-μL aliquots of the supernatants were taken for protein determination by BCA assays, and the remaining supernatants were used for phosphatase activity assays. Aliquots of cell lysates containing 400 μg of proteins were combined with 4 μg of anti-PP2Ac antibody (Millipore), to which was added PP2A assay buffer (20 mmol/L Hepes pH 7.0, 100 mM NaCl) to a final volume of 500 μL followed by 40 μL of Protein A-agarose. Mixtures were incubated at 4° C. for 2 h, and briefly centrifuged. The immunocomplexes were washed and used for the phosphatase activity assay. The amounts of PP2A in the immunocomplexes were determined semi-quantitatively by Western blotting.

[4] = system: Sp1 binding to AR promoter; test: ChIP assay of Sp1 binding to AR promoter in LNCaP cells; settings: 72 h
Protocol: Chromatin Immunoprecipitation (ChIP).
After drug treatment, LNCaP cells (2×10^7) in 50 mL of PBS were cross-linked with 1.35 mL of 37% formaldehyde (final concentration 1%) for 15 min at room temperature. Glycine solution (1 mol/L) was added to a final concentration of 125 mmol/L to stop the cross-linking reaction. Cells were harvested and washed twice with 5 mL of PBS, and the cell pellets were lysed in a ChIP lysis buffer containing (50 mM HEPES-KOH at pH 7.5, 140 mM NaCl, 1% Triton X-100, 0.1% sodium deoxycholate, 2 mM AEBSF, 1 mM EDTA, 130 μM bestatin, […], 1 μM leupeptin, and 0.3 μM aprotinin). The suspension was sonicated at 20% output in a Virsonic 300 sonicator with 6 sets of 10-sec pulses (resulting in an average fragment size of 0.8-0.2 kb) and centrifuged for 10 min at 15,000×g at 4° C. One-μL aliquots of the transparent supernatants were taken for determining protein concentrations by BCA assays. Immunoprecipitation was carried out as described above. Aliquots of 1 mg proteins were used for immunoprecipitation using 4 μg of anti-Sp1 antibody followed by protein A/G agarose beads. […]

| SMILES | phosphorylation levels of Akt, ERK, JNK, p38 [1] | AR mRNA transcript level [2] | PP2A phosphatase activity [3] | PP2A expression (protein level) [3] | Sp1 binding to AR promoter [4] |
| --- | --- | --- | --- | --- | --- |
| Cc1c(C)c2c(c(C)c1OC(=O)CCC(=O)O)CCC(C)(CCCC(C)CCCC(C)C)O2 (stereo not shown) [TS-1, succinic acid mono-[2-(4,8-dimethyl-nonyl)-2,5,7,8-tetramethylchroman-6-yl]ester] | dose-dependent reduction in the phosphorylation levels of all four kinases examined | time-dependent reduction | increase PP2A phosphatase activity | without affecting its expression | diminished the Sp1 binding to AR promoter in a dose-dependent manner |
| Cc1c(C)c2c(c(C)c1OC(=O)CCC(=O)O)CC[C@@](C)(CCC[C@H](C)CCC[C@H](C)CCCC(C)C)O2 [VES, α-tocopheryl succinate] | dose-dependent reduction in the phosphorylation levels of all four kinases examined | time-dependent reduction | increase PP2A phosphatase activity | without affecting its expression | diminished the Sp1 binding to AR promoter in a dose-dependent manner |
